Assay results taken from patent publication US6989377B2, “Treating vitamin D responsive diseases” (priority 1999, dated 2006).
Read-outs that look alike come from different tables or passages of the source.

Assays:
[1] = test system: DSS-induced colitis in 129X1/SvJ male mice; assay: Treatment at the first signs of DSS-induced colitis in 129X1/SvJ mice; format: in vivo, mouse
Text: The 129×1/SvJ strain is genetically similar to the 129/Ola strain and to the 129/SvPas strain, which is less susceptible to DSS-induced colitis than C3H/HeJ.

[2] = test system: C3H/HeJ male mice; assay: Serum calcium after calcitriol feeding, C3H/HeJ male mice; format: in vivo, mouse
Method: In order to determine serum calcium, blood was collected, allowed to clot, and centrifuged (5,000×g for 10 minutes) at 6° C. The serum was decanted and stored frozen at −20° C. The samples, standards, and buffer blanks (2 μL each) were aliquoted into duplicate wells of a 96-well plate. Calcium reagent working solution (0.25 mL), prepared according to the manufacturer's directions (Sigma Diagnostics, St. Louis, Mo.), was added to each well, and the absorbance at 570 nm was measured.

[3] = test system: B6×129-IL-10−/− mice; conditions: for Serum Calcium B6x129-IL-10−/− female (mg/dL): analyzed when mice lost 15% of body weight; for Serum Calcium B6x129-IL-10−/− male (mg/dL): analyzed four weeks later
Method: The calcitriol feeding was resumed at a lower dose (20 ng/d) at age 16 weeks. […] The calcitriol feeding was resumed at a lower dose (10 ng/d) at age 18 weeks.
Four weeks later, the serum calcium levels were measured (Table 10).

[4] = test system: Lyme arthritis in mice; conditions: calcitriol administered to mice; cited from earlier work
[5] = 50 ng/d from day 4 of 1% DSS, terminated 21 days later
[6] = female, dose gradually reduced, age 24 weeks
[7] = female, dose gradually reduced, terminated at age 24 weeks
[8] = male, 50 ng/d, terminated at age 19 weeks

C=C1/C(=C\C=C2/CCC[C@]3(C)[C@@H]([C@H](C)CCCC(C)(C)O)CC[C@@H]23)C[C@@H](O)C[C@@H]1O [Calcitriol, 1,25 dihydroxyvitamin D3]
Colon Histopathology, Distal colon ([1]; 50 ng/d from day 4 of 1% DSS): 0.6 ± 0.9 | Colon Histopathology, Middle colon ([1]; 50 ng/d from day 4 of 1% DSS): 0 ± 0 | Colon Histopathology, Rectum + anus ([1]; 50 ng/d from day 4 of 1% DSS): 0.2 ± 0.4 | Colon histopathology, Proximal colon ([1]; 50 ng/d from day 4 of 1% DSS): 0.4 ± 0.8 | Colon histopathology, Sum ([1]; 50 ng/d from day 4 of 1% DSS): 1.2 ± 1.8 | Peak fecal hemoglobin ([1]; 50 ng/d from day 4 of 1% DSS, 1 cycle, terminated 21 days later): 1.3 ± 1.2 mg/g | Terminal Serum Ca [1, 5]: 9.7 ± 3.2 mg/dL | Terminal weight [1, 5]: 26.4 ± 3.3 g | Colon histopathology compared to the mock-treated and prednisolone-treated mice ([1]; three weeks later): significant reduction in colon histopathology | Serum Calcium C3H/HeJ male ([2]; 10 ng/d for two weeks): 10.5 ± 2.1 mg/dL | Serum Calcium C3H/HeJ male ([2]; 20 ng/d for two weeks): 10.1 ± 2.7 mg/dL | Serum Calcium C3H/HeJ male ([2]; 50 ng/d for two weeks): 9.9 ± 0.6 mg/dL | Serum Calcium C3H/HeJ male ([2]; 100 ng/d for two weeks): 10.1 ± 1.8 mg/dL | Tolerability of the calcitriol doses ([2]; mouse, in vivo): well tolerated | Effect on spontaneous colitis ([3]; 50 ng/d, colitis severity scores vs mock-treated not significantly different): did not inhibit spontaneous colitis | Serum Calcium B6x129-IL-10−/− female (mg/dL) ([3]; female, 10 ng/d): 12.5 ± 1.5 mg/dL | Serum Calcium B6x129-IL-10−/− female (mg/dL) ([3]; female, 20 ng/d): 13.0 ± 3.0 mg/dL | Serum Calcium B6x129-IL-10−/− female (mg/dL) ([3]; female, 50 ng/d): 12.9 ± 2.4 mg/dL | Peak fecal hemoglobin ([3]; female, calcitriol from age 7 weeks, dose gradually reduced, terminated at age 24 weeks): 0 ± 0 mg/g | Colon Histopathology, Distal colon [3, 6]: 3.3 ± 0.5 | Colon Histopathology, Middle colon [3, 6]: 3.3 ± 0.5 | Colon Histopathology, Rectum + anus [3, 6]: 2.8 ± 1.9 | Colon histopathology, Proximal colon [3, 6]: 3.9 ± 0.3 | Colon histopathology, Sum [3, 6]: 13.1 ± 2.7 | Terminal Serum Ca [3, 7]: 12.5 ± 1.5 mg/dL | Terminal weight [3, 7]: 19.5 ± 1.5 g | Weight lost ([3]; female, feeding resumed at 20 ng/d at age 16 weeks): 15% | Serum Calcium B6x129-IL-10−/− male (mg/dL) ([3]; male, 10 ng/d): 15.8 ± 2.1 mg/dL | Serum Calcium B6x129-IL-10−/− male (mg/dL) ([3]; male, 20 ng/d): 14.4 ± 1.0 mg/dL | Peak fecal hemoglobin ([3]; male, 50 ng/d from age 7 weeks, terminated at age 19 weeks): 0 ± 0 mg/g | Colon Histopathology, Distal colon ([3]; male, 50 ng/d, age 19 weeks): 3.0 ± 0.0 | Colon Histopathology, Middle colon ([3]; male, 50 ng/d, age 19 weeks): 1.7 ± 1.2 | Colon Histopathology, Rectum + anus ([3]; male, 50 ng/d, age 19 weeks): 2.7 ± 0.6 | Colon histopathology, Proximal colon ([3]; male, 50 ng/d, age 19 weeks): 3.7 ± 0.6 | Colon histopathology, Sum ([3]; male, 50 ng/d, age 19 weeks): 11.1 ± 1.0 | Serum Calcium B6x129-IL-10−/− male (mg/dL) ([3]; male, 50 ng/d): 16.0 ± 3.5 mg/dL | Terminal Serum Ca [3, 8]: 15.6 ± 2.5 mg/dL | Terminal weight [3, 8]: 19.7 ± 0.9 g | Mortality of male mice ([3]; male, 100 ng/d from age 7 weeks): died abruptly at age 15 weeks | Hypercalcemia ([3]; male, graded (very low) doses from age 7 weeks, four weeks): severe hypercalcemia | Disease induction for Lyme arthritis [4]: blocked disease induction
